Values quoted from earlier work as cited in US11318156B2, “Solid injectable veterinary implants comprising monocyclic lactone” (CEVA SANTE ANIMALE, priority 2017, dated 2022).
Like-named read-outs stand apart in the source and are kept apart here.

Key:
[1] = not given; remark: listed apart in the source
[2] = 14-week oral study

ivermectin
share of collie dogs highly sensitive to ivermectin: approximately 30%
average increase in plasma levels ([1]; four-fold increase in the dose (0.5 to 2.0 mg/kg bw oral)): eight-fold
time to steady-state of ivermectin (B1a) in plasma ([1]; oral 0.5 and 2.0 mg/kg bw, 36-day study): about three weeks
No Observable Effect Level (NOEL) ([2]; beagle dogs): 0.5 mg/kg bw
observed effects ([2]; beagle dogs, 1.0 and 2.0 mg/kg bw): mydriasis and slight weight loss
observed effects ([2]; four dogs in the 2.0 mg/kg bw group, killed prior to end of study): tremors, ataxia, anorexia and dehydration
